According to ChEMBL document CHEMBL5303573, “Mapping human microbiome drug metabolism by gut bacteria and their genes” (Nature, 2019):
Non-standard residues stand in square brackets, D forms with d. Residues, ends and D or L forms follow the SMILES beside them. pGlu = O=C1CC[C@@H](C(=O)O)N1; Thz = O=C(O)[C@@H]1CSCN1

Experiments:
[1] = The drug is tested on Bifidobacterium breve strain: DSM20213 for biotransformation. The drug concentrations were measured before and after a 12-h incubation by liquid-chromatography-coupled mass spectrometry (LC–MS); conditions: 2 µM
[2] = The drug is tested on Bifidobacterium longum subsp. Infantis strain: CCUG52486 for biotransformation. The drug concentrations were measured before and after a 12-h incubation by liquid-chromatography-coupled mass spectrometry (LC–MS); conditions: 2 µM
[3] = The drug is tested on Collinsella intestinalis strain: DSM13280 for biotransformation. The drug concentrations were measured before and after a 12-h incubation by liquid-chromatography-coupled mass spectrometry (LC–MS); conditions: 2 µM
[4] = The drug is tested on Bacteroides fragilis strain: ATCC43859 for biotransformation. The drug concentrations were measured before and after a 12-h incubation by liquid-chromatography-coupled mass spectrometry (LC–MS); conditions: 2 µM
[5] = The drug is tested on Bacteroides pectinophilus strain: ATCC43243 for biotransformation. The drug concentrations were measured before and after a 12-h incubation by liquid-chromatography-coupled mass spectrometry (LC–MS); conditions: 2 µM
[6] = The drug is tested on Bacteroides sp. WH2 strain: WH2 for biotransformation. The drug concentrations were measured before and after a 12-h incubation by liquid-chromatography-coupled mass spectrometry (LC–MS); conditions: bacteroides sp. wh2, 12 h, 2 µM
[7] = The drug is tested on Blautia hansenii strain: DSM20583 for biotransformation. The drug concentrations were measured before and after a 12-h incubation by liquid-chromatography-coupled mass spectrometry (LC–MS); conditions: 2 µM
[8] = The drug is tested on Clostridium symbiosum strain: ATCC14940 for biotransformation. The drug concentrations were measured before and after a 12-h incubation by liquid-chromatography-coupled mass spectrometry (LC–MS); conditions: 2 µM
[9] = The drug is tested on Eubacterium hallii strain: DSM3353 for biotransformation. The drug concentrations were measured before and after a 12-h incubation by liquid-chromatography-coupled mass spectrometry (LC–MS); conditions: anaerobutyricum hallii, 2 µM
[10] = The drug is tested on Eubacterium ventriosum strain: ATCC27560 for biotransformation. The drug concentrations were measured before and after a 12-h incubation by liquid-chromatography-coupled mass spectrometry (LC–MS); type: ADME; parameters: dose 2 uM, timepoint 0 vs 12 hours; conditions: 2 µM
[11] = The drug is tested on Ruminococcus gnavus strain: ATCC29149 for biotransformation. The drug concentrations were measured before and after a 12-h incubation by liquid-chromatography-coupled mass spectrometry (LC–MS); conditions: mediterraneibacter gnavus, 2 µM
[12] = The drug is tested on Edwardsiella tarda strain: ATCC23685 for biotransformation. The drug concentrations were measured before and after a 12-h incubation by liquid-chromatography-coupled mass spectrometry (LC–MS); conditions: 2 µM
[13] = The drug is tested on Providencia stuartii strain: ATCC25827 for biotransformation. The drug concentrations were measured before and after a 12-h incubation by liquid-chromatography-coupled mass spectrometry (LC–MS); conditions: 2 µM
[14] = bifidobacterium adolescentis, 12 h, 2 µM
Description: The drug is tested on Bifidobacterium adolescentis strain: ATCC 15703 for biotransformation. The drug concentrations were measured before and after a 12-h incubation by liquid-chromatography-coupled mass spectrometry (LC–MS)

[15] = bacteroides fragilis, 12 h, 2 µM
Description: The drug is tested on Bacteroides fragilis strain: NCTC 9343 for biotransformation. The drug concentrations were measured before and after a 12-h incubation by liquid-chromatography-coupled mass spectrometry (LC–MS)

[16] = bacteroides fragilis, 12 h, 2 µM; remark: listed apart in the source
Description: The drug is tested on Bacteroides fragilis strain: 3397 (T10) for biotransformation. The drug concentrations were measured before and after a 12-h incubation by liquid-chromatography-coupled mass spectrometry (LC–MS)

[17] = bacteroides intestinalis, 12 h, 2 µM
Description: The drug is tested on Bacteroides intestinalis strain: DSM17393 for biotransformation. The drug concentrations were measured before and after a 12-h incubation by liquid-chromatography-coupled mass spectrometry (LC–MS)

[18] = enterocloster bolteae, 12 h, 2 µM
Description: The drug is tested on Clostridium bolteae strain: ATCCBAA-613 for biotransformation. The drug concentrations were measured before and after a 12-h incubation by liquid-chromatography-coupled mass spectrometry (LC–MS)

[19] = The drug is tested on Bacteroides xylanisolvens strain: DSM18836 for biotransformation. The drug concentrations were measured before and after a 12-h incubation by liquid-chromatography-coupled mass spectrometry (LC–MS); conditions: 2 µM
[20] = bacteroides thetaiotaomicron, 12 h, 2 µM
Description: The drug is tested on Bacteroides thetaiotaomicron strain: 3731 for biotransformation. The drug concentrations were measured before and after a 12-h incubation by liquid-chromatography-coupled mass spectrometry (LC–MS)

Structure (SMILES)	Bacterial Biotransformation [1]	Bacterial Biotransformation [2]	Bacterial Biotransformation [3]	Bacterial Biotransformation [4]	Bacterial Biotransformation [5]	Bacterial Biotransformation [6]	Bacterial Biotransformation [7]	Bacterial Biotransformation [8]	Bacterial Biotransformation [9]	Bacterial Biotransformation [10]	Bacterial Biotransformation [11]	Bacterial Biotransformation [12]	Bacterial Biotransformation [13]	Bacterial Biotransformation [14]	Bacterial Biotransformation [15]	Bacterial Biotransformation [16]	Bacterial Biotransformation [17]	Bacterial Biotransformation [18]	Bacterial Biotransformation [19]	Bacterial Biotransformation [20]
O=C1CC[C@@H](C(=O)N2CSC[C@H]2C(=O)O)N1 [PIDOTIMOD] ([pGlu]-[Thz]-OH)	Compound NOT metabolized	Compound NOT metabolized	Compound NOT metabolized	Compound metabolized	Compound NOT metabolized	Compound NOT metabolized	Compound metabolized	Compound NOT metabolized	Compound NOT metabolized	Compound NOT metabolized	Compound NOT metabolized	Compound NOT metabolized	Compound NOT metabolized	Compound NOT metabolized	Compound metabolized	Compound metabolized	Compound NOT metabolized	Compound NOT metabolized	–	–
O=C([O-])C[C@H](O)C[C@H](O)/C=C/c1c(C2CC2)nc2ccccc2c1-c1ccc(F)cc1.O=C([O-])C[C@H](O)C[C@H](O)/C=C/c1c(C2CC2)nc2ccccc2c1-c1ccc(F)cc1.[Ca+2] [PITAVASTATIN CALCIUM]	Compound NOT metabolized	Compound NOT metabolized	Compound NOT metabolized	Compound NOT metabolized	Compound NOT metabolized	Compound NOT metabolized	Compound NOT metabolized	Compound NOT metabolized	Compound NOT metabolized	Compound NOT metabolized	Compound NOT metabolized	Compound NOT metabolized	–	Compound NOT metabolized	Compound NOT metabolized	Compound NOT metabolized	Compound NOT metabolized	Compound NOT metabolized	Compound NOT metabolized	Compound NOT metabolized
CN(C)CCc1c[nH]c2ccc(Cn3cncn3)cc12.O=C(O)c1ccccc1 [RIZATRIPTAN BENZOATE]	Compound NOT metabolized	–	Compound NOT metabolized	Compound NOT metabolized	Compound NOT metabolized	Compound NOT metabolized	Compound NOT metabolized	Compound NOT metabolized	Compound NOT metabolized	Compound NOT metabolized	–	Compound NOT metabolized	Compound NOT metabolized	–	–	–	–	Compound NOT metabolized	Compound NOT metabolized	Compound NOT metabolized
O=C(O)CCC(=O)O.O=C(O[C@H]1CN2CCC1CC2)N1CCc2ccccc2[C@@H]1c1ccccc1 [SOLIFENACIN SUCCINATE]	Compound NOT metabolized	Compound NOT metabolized	Compound NOT metabolized	Compound NOT metabolized	Compound NOT metabolized	Compound NOT metabolized	Compound NOT metabolized	Compound NOT metabolized	Compound NOT metabolized	Compound NOT metabolized	Compound NOT metabolized	Compound NOT metabolized	Compound NOT metabolized	Compound NOT metabolized	Compound NOT metabolized	Compound NOT metabolized	Compound NOT metabolized	Compound NOT metabolized	–	Compound NOT metabolized
O=C(CCCN1CCC2(CC1)C(=O)NCN2c1ccccc1)c1ccc(F)cc1 [SPIPERONE]	Compound NOT metabolized	Compound NOT metabolized	Compound NOT metabolized	Compound NOT metabolized	Compound NOT metabolized	Compound NOT metabolized	Compound NOT metabolized	Compound NOT metabolized	Compound NOT metabolized	Compound NOT metabolized	Compound NOT metabolized	Compound NOT metabolized	–	Compound NOT metabolized	Compound NOT metabolized	Compound NOT metabolized	Compound NOT metabolized	Compound NOT metabolized	Compound NOT metabolized	Compound NOT metabolized
CN1C(C(=O)Nc2ccccn2)=C(O)c2sccc2S1(=O)=O [TENOXICAM]	Compound NOT metabolized	Compound NOT metabolized	Compound NOT metabolized	Compound NOT metabolized	Compound NOT metabolized	–	Compound NOT metabolized	Compound NOT metabolized	Compound NOT metabolized	Compound NOT metabolized	Compound NOT metabolized	Compound NOT metabolized	Compound NOT metabolized	Compound NOT metabolized	–	Compound NOT metabolized	Compound NOT metabolized	–	–	Compound NOT metabolized
Cc1ccc(S(=O)(=O)NC(=O)NN2CCCCCC2)cc1 [TOLAZAMIDE]	Compound NOT metabolized	Compound metabolized	Compound NOT metabolized	Compound metabolized	Compound metabolized	Compound NOT metabolized	Compound metabolized	Compound NOT metabolized	Compound metabolized	Compound NOT metabolized	Compound NOT metabolized	Compound NOT metabolized	–	Compound NOT metabolized	Compound metabolized	Compound metabolized	Compound NOT metabolized	Compound NOT metabolized	Compound metabolized	Compound metabolized
CCOC(=O)C1=C[C@]2(CC)CCCN3CCc4c(n1c1ccccc41)[C@@H]32 [VINPOCETINE]	Compound NOT metabolized	Compound NOT metabolized	Compound NOT metabolized	Compound NOT metabolized	Compound NOT metabolized	Compound NOT metabolized	Compound metabolized	Compound NOT metabolized	Compound NOT metabolized	Compound NOT metabolized	Compound NOT metabolized	Compound NOT metabolized	Compound NOT metabolized	Compound NOT metabolized	Compound NOT metabolized	Compound NOT metabolized	Compound NOT metabolized	Compound NOT metabolized	–	Compound NOT metabolized
CCN(C(C)=O)c1cccc(-c2ccnc3c(C#N)cnn23)c1 [ZALEPLON]	Compound NOT metabolized	–	–	Compound metabolized	Compound NOT metabolized	–	Compound metabolized	Compound NOT metabolized	Compound NOT metabolized	Compound NOT metabolized	Compound NOT metabolized	–	Compound NOT metabolized	–	Compound metabolized	Compound NOT metabolized	Compound NOT metabolized	–	Compound metabolized	–
